The record followed here is patent publication US20220226231A1, “AGRIMONY EXTRACT AS ANTI-POLLUTION AGENT” (PIERRE FABRE DERMO-COSMETIQUE, priority 2019, published 2022).

The subject of the assay is reconstructed human epithelium (RHE). Nature of the assay: Anti-pollution activity: MDA production (lipid peroxidation) in ozone-stressed reconstructed human epithelium. The class given is cell-based. To be noted: Trolox 1 mg/mL. An excerpt: The objective of this study is to evaluate the antioxidant, detoxifying and ozone-protective activity of an agrimony extract, following exposure to ozone in a reconstructed human epithelium (RHE) mimicking the effect of pollution on the skin. Lipids playing a role in epidermal barrier function, such as free fatty acids, cholesterol, triglycerides and ceramides, can be impacted under stress conditions with increased oxidative lipid damage. Direct measurements of lipid peroxidation can be carried out by measuring malondialdehyde (MDA) by gas chromatography techniques combined with mass spectrometry. This compound is naturally present in tissues, where it is a manifestation of oxidative stress. It is derived in particular from the action of reactive oxygen derivatives on polyunsaturated fatty acids. Several conditions are realized in this study: • Negative control: non-stressed RHE; • Positive control: ozone-stressed RHE; • Test with an agrimony extract: ozone-stressed RHE is in contact with the extract (n=3), this test is performed with 3 different concentrations (1, 3 and 10 μg/mL); • Test with a reference compound: ozone-stressed RHE is in contact with the reference compound (Trolox). The agrimony extract is solubilized in water/DMSO, (80/20, v/v). The process is based on lipid oxidation from ozonolysis. […] A protection index is calculated from the stress and control conditions. […]

For the compound `Cc1c(C)c2c(c(C)c1O)CCC(C)(C(=O)O)O2` (centres unmarked) [Trolox, 3,4-Dihydro-6-hydroxy-2,5,7,8-tetramethyl-2H-1-benzopyran-2-carboxylic acid], the “PI (%) protection index” value came out at 37.6%. Moreover, where the note is “listed as trolox”, the “PI (%) protection index” value came out at 38%.
